According to the supplement of paper PMC10307832:

How the values were obtained:
Test in all cases: relative viability (nuclei count vs DMSO), 5 days (fraction); higher = more cells survive
Idelalisib + Tozasertib = compound: CC[C@H](Nc1ncnc2[nH]cnc12)c1nc2cccc(F)c2c(=O)n1-c1ccccc1 [Idelalisib] + Cc1cc(Nc2cc(N3CCN(C)CC3)nc(Sc3ccc(NC(=O)C4CC4)cc3)n2)n[nH]1 [Tozasertib] (partner 0.1 µM)
In short: (§1)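 A single step with final 0.05% Triton X-100, 1% formaldehyde and 1 ug/ml Hoechst fixed the cells and stained nuclei 5 days after treatment. Lung cancer cell lines in 1536-well plates had been treated by pin tool the day after seeding with one drug alone or a fixed anchor-drug dose plus five library-drug doses (not always all listed) in √10 steps, and nuclei were counted on 4× images. Relative viability is the ratio of nuclei in treated wells to nuclei in vehicle wells, taken as the median of duplicate plates.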

Pemetrexed + AZD7762 = compound: Nc1nc2[nH]cc(CCc3ccc(C(=O)N[C@@H](CCC(=O)O)C(=O)O)cc3)c2c(=O)[nH]1 [Pemetrexed] + NC(=O)Nc1cc(-c2cccc(F)c2)sc1C(=O)N[C@H]1CCCNC1 [AZD7762] (partner 0.2 µM)
In short: as §1

Idelalisib + Luminespib = compound: CC[C@H](Nc1ncnc2[nH]cnc12)c1nc2cccc(F)c2c(=O)n1-c1ccccc1 [Idelalisib] + CCNC(=O)c1noc(-c2cc(C(C)C)c(O)cc2O)c1-c1ccc(CN2CCOCC2)cc1 [Luminespib] (partner 0.01 µM)
In short: as §1

Idelalisib + Bortezomib = compound: CC[C@H](Nc1ncnc2[nH]cnc12)c1nc2cccc(F)c2c(=O)n1-c1ccccc1 [Idelalisib] + CC(C)C[C@H](NC(=O)[C@H](Cc1ccccc1)NC(=O)c1cnccn1)B(O)O [Bortezomib] (partner 0.002 µM)
In short: as §1

| Cell Line | relative viability (Idelalisib + Tozasertib; first compound 0.04 µM) | relative viability (Idelalisib + Tozasertib; first compound 0.1265 µM) | relative viability (Idelalisib + Tozasertib; first compound 0.4 µM) | relative viability (Idelalisib + Tozasertib; first compound 1.265 µM) | relative viability (Idelalisib + Tozasertib; first compound 4 µM) | relative viability (Pemetrexed + AZD7762; first compound 0.002 µM) | relative viability (Pemetrexed + AZD7762; first compound 0.006325 µM) | relative viability (Pemetrexed + AZD7762; first compound 0.02 µM) | relative viability (Pemetrexed + AZD7762; first compound 0.06325 µM) | relative viability (Pemetrexed + AZD7762; first compound 0.2 µM) | relative viability (Idelalisib + Luminespib; first compound 0.04 µM) | relative viability (Idelalisib + Luminespib; first compound 0.4 µM) | relative viability (Idelalisib + Luminespib; first compound 1.265 µM) | relative viability (Idelalisib + Luminespib; first compound 4 µM) | relative viability (Idelalisib + Bortezomib; first compound 0.04 µM) | relative viability (Idelalisib + Bortezomib; first compound 0.1265 µM) | relative viability (Idelalisib + Bortezomib; first compound 0.4 µM) | relative viability (Idelalisib + Bortezomib; first compound 1.265 µM) | relative viability (Idelalisib + Bortezomib; first compound 4 µM) | relative viability (Idelalisib + Luminespib; first compound 0.1265 µM) |
| --- | --- | --- | --- | --- | --- | --- | --- | --- | --- | --- | --- | --- | --- | --- | --- | --- | --- | --- | --- | --- |
| NCI-H522 | 0.578 | 0.569 | 0.508 | 0.571 | 0.489 | 0.999 | 0.806 | 1.05 | 0.91 | 0.805 | 1.13 | 1.21 | 1.12 | 1.23 |  |  |  |  |  |  |
| NCI-H1703 |  |  |  |  |  | 0.127 | 0.133 | 0.127 | 0.12 | 0.146 |  |  |  |  | 0.305 | 0.404 | 0.246 | 0.332 | 0.161 |  |
| IA-LM |  |  |  |  |  |  |  |  |  |  |  |  |  |  | 0.987 | 0.847 | 0.956 | 0.88 | 0.889 |  |
| SW 900 | 0.69 | 0.539 | 0.542 | 0.605 | 0.594 | 0.692 | 0.599 | 0.609 | 0.497 | 0.376 | 0.21 | 0.152 | 0.183 | 0.165 |  |  |  |  |  | 0.193 |
| NCI-H1648 | 0.489 | 0.373 | 0.412 | 0.425 | 0.217 | 0.671 | 0.703 | 0.831 | 0.686 | 0.623 |  |  |  |  |  |  |  |  |  |  |
| SK-LU-1 | 0.294 | 0.313 | 0.337 | 0.32 | 0.327 |  |  |  |  |  | 0.225 | 0.185 | 0.188 | 0.205 | 1.06 | 1.14 | 0.961 | 0.95 | 1.04 | 0.189 |
| NCI-H358 | 0.106 | 0.0937 | 0.113 | 0.088 | 0.116 | 0.55 | 0.321 | 0.539 | 0.338 | 0.266 | 0.284 | 0.347 | 0.235 | 0.159 |  |  |  |  |  | 0.587 |
| NCI-H1563 |  |  |  |  |  |  |  |  |  |  | 0.562 | 0.557 | 0.519 | 0.5 | 0.932 | 0.858 | 0.696 | 0.864 | 0.681 | 0.543 |
| LK-2 | 0.178 | 0.165 |  | 0.18 | 0.164 | 0.504 | 0.426 | 0.494 | 0.245 | 0.164 | 0.177 |  | 0.196 | 0.178 |  |  |  |  |  | 0.142 |
| NCI-H2342 | 0.44 | 0.556 | 0.44 | 0.455 | 0.397 | 0.354 | 0.492 | 0.392 | 0.524 | 0.443 | 0.764 | 0.629 | 0.72 | 0.496 |  |  |  |  |  | 0.757 |
| SW 1573 | 0.168 | 0.181 | 0.163 | 0.201 | 0.142 |  |  |  |  |  | 0.275 | 0.219 | 0.17 | 0.365 | 1.06 | 0.972 | 1.02 | 0.928 | 0.865 | 0.171 |
| NCI-H2170 | 0.796 | 0.706 | 0.69 | 0.727 | 0.633 | 0.873 | 0.916 | 0.864 | 0.774 | 0.357 | 0.548 | 0.645 | 0.61 | 0.673 |  |  |  |  |  | 0.843 |
| NCI-H2009 | 0.736 | 0.852 | 0.667 | 0.756 | 0.567 |  |  |  |  |  | 1.01 | 1.02 | 1.11 | 1.03 | 1.02 | 1.07 | 0.995 | 1.14 | 0.991 | 1.04 |
| Calu-6 |  |  |  |  |  |  |  |  |  |  |  |  |  |  | 1.13 | 0.991 | 0.937 | 1.02 | 1.07 |  |
| NCI-H1395 | 0.817 | 0.77 | 0.771 | 0.767 | 0.62 | 0.387 | 0.373 | 0.421 | 0.415 | 0.38 | 0.675 | 0.662 | 0.694 | 0.645 |  |  |  |  |  | 0.72 |
| NCI-H1793 | 0.344 | 0.311 | 0.222 | 0.229 | 0.225 | 0.468 | 0.404 | 0.966 | 0.446 | 0.509 | 0.208 | 0.166 | 0.179 | 0.183 |  |  |  |  |  | 0.253 |
| SK-MES-1 | 0.972 | 1.05 | 0.955 | 0.964 | 0.931 |  |  |  |  |  | 0.847 | 0.591 | 0.546 | 0.542 |  |  |  |  |  | 0.689 |
| NCI-H1299 |  |  |  |  |  |  |  |  |  |  |  |  |  |  | 1.03 | 1.03 | 1.02 | 1.09 | 1.03 |  |
| NCI-H2228 | 0.292 | 0.216 | 0.223 | 0.271 | 0.239 |  |  |  |  |  | 0.0989 | 0.16 | 0.175 | 0.133 | 1.07 | 0.983 | 1.09 | 1.05 | 1.03 | 0.17 |
| EBC-1 |  |  |  |  |  |  |  |  |  |  |  |  |  |  | 0.646 | 0.603 | 0.587 | 0.505 | 0.444 |  |
| COR-L23 | 0.196 | 0.195 | 0.207 | 0.225 | 0.162 |  |  |  |  |  | 0.848 | 0.699 | 0.819 | 0.549 | 0.874 | 1.01 | 0.947 | 1.22 | 0.956 | 0.681 |
| NCI-H1944 | 0.272 | 0.229 | 0.219 | 0.224 | 0.211 | 0.48 | 0.432 | 0.582 | 0.506 | 0.531 | 0.809 | 0.609 | 0.636 | 0.532 |  |  |  |  |  | 0.621 |
| NCI-H520 | 0.468 | 0.4 | 0.406 | 0.405 | 0.405 |  |  |  |  |  | 0.197 | 0.222 | 0.217 | 0.192 | 0.464 | 0.552 | 0.367 | 0.634 | 0.278 | 0.251 |
| COR-L 105 | 0.354 | 0.321 | 0.312 | 0.334 | 0.357 |  |  |  |  |  | 0.695 | 0.814 | 0.699 | 0.573 | 0.906 | 0.92 | 0.53 | 1.02 | 0.713 | 0.783 |
| NCI-H2023 | 0.355 | 0.284 | 0.363 | 0.321 | 0.253 |  |  |  |  |  | 0.644 | 0.79 | 0.87 | 0.67 | 1.11 | 1.09 | 0.681 | 1.03 | 0.871 | 0.784 |
